Experimental data: patent US20260216348A1, “IRAK DEGRADATION AGENT AND USE THEREOF” (Increland, priority 2023, published 2026)

Legend:
[1] = test system: IMQ psoriasis model; assay: IMQ (imiquimod)-induced psoriasis model; type: in vivo, BALB/c mice; conditions: QD, Mean ± SD, n = 7; for PASI Score d 6: Model 8.85 ± 1.66; for ΔSkin Thickness Change (μm) d 6: Model 80.95 ± 6.16
Description: Male BALB/c mice, aged 6-8 weeks, were randomly divided into 9 groups after 1 week of acclimatization: blank control group, imiquimod model group (IMQ group, corresponding to the model groups in FIGS. 1 and 2), clobetasol propionate cream group (CLO group), TYKI (BMS-986165) group, IRAK4 protein degrader KT-474 (from patent WO2020113233) group (100 mg/kg), and the compound of the present disclosure (at an appropriate dose), with 6-7 mice in each group. One day before modeling, the hair on the backs of the mice was removed with depilatory cream, with a depilated area of 2×2 cm^2. On the day of modeling, IMQ cream was used for modeling, and the corresponding drugs were administered intragastrically for treatment. The compound of the present disclosure (at an appropriate dose) was administered intragastrically once daily, and IMQ cream was applied to the hairless area on the back and left ear of mice 2 h after the first administration. […] The blank group and the IMQ group were administered with vehicle intragastrically twice daily (in the morning and evening), with an 8-h interval between the two intragastric administrations. At 2 h after the first intragastric administration, vaseline and IMQ cream were applied topically to the depilated back and ears of the mice, respectively. The dosage of IMQ cream administered to the depilated area on the back and the left ear was 80 mg and 10 mg, respectively, and the mice in each group were administered the cream for 5 consecutive days.
Reference was made to the Psoriasis Area and Severity Index (PASI) scoring criteria. The psoriasis, erythema, and thickness of skin lesions on the back were scored from 0 to 4 every morning from day 1 of modeling, with the scoring criteria as shown in Table 28. The 3 were added up to obtain a total score, i.e., a total PASI score. The ear thickness of the left ear of the mouse was measured using a digital vernier caliper three times every morning from day 1 of modeling, to obtain a mean value.

[2] = test system: CIA-induced rheumatoid arthritis model; assay: CIA-induced rheumatoid arthritis model; type: in vivo, DBA/1J mice; conditions: QD, Model 12.31 ± 2.97, Mean ± SD, n = 7
Description: 1. DBA/1J mice, male, SPF grade, were pre-acclimatized in the animal facility for one week. 2. On day 1, for the primary immunization, 2 mg/mL bovine type II collagen was mixed thoroughly with an equal volume of complete Freund's adjuvant on ice using a homogenizer until fully emulsified. 100 μL of the collagen emulsion (final concentration 1 mg/mL) was intradermally injected at 2 cm from the base of the mouse tail. Medical iodophor was used to disinfect the tail after injection to prevent tail necrosis, which was conducted for 3 consecutive days. 3. On day 21, bovine type II collagen solution was thoroughly mixed and emulsified with an equal volume of Freund's incomplete adjuvant, using the same method as the primary immunization. 4. On day 26, LPS was administered intraperitoneally at a dose of 50 μg/animal to induce disease. 5. On day 28, the affected mice were scored according to Table 33 and the diameter of their ankle joints was measured. Mice were randomly grouped and treated with medication based on their scores and ankle diameter.

SMILES	PASI Score d 6 ([1]; 3 mg/kg)	ΔSkin Thickness Change (μm) d 6 ([1]; 3 mg/kg) [μm]	PASI Score d 6 ([1]; 10 mg/kg)	ΔSkin Thickness Change (μm) d 6 ([1]; 10 mg/kg) [μm]	PASI Score d 6 ([1]; 30 mg/kg)	ΔSkin Thickness Change (μm) d 6 ([1]; 30 mg/kg) [μm]	DAI Score d 42 ([2]; 15 mg/kg)	DAI Score d 42 ([2]; 45 mg/kg)
CN(C)c1cc2nn([C@H]3CC[C@H](CN4C[C@@H](n5cc6cc(N7CCC(=O)NC7=O)ccc6n5)[C@@H](F)C4)CC3)cc2cc1NC(=O)c1cnn2cccnc12 [TM-205]	7.29 ± 1.99	65.71 ± 10.23	6.75 ± 1.28	52.62 ± 9.59	4.84 ± 0.80	53.10 ± 12.95	–	–
CN(C)c1cc2nn([C@H]3CC[C@H](CN4CCC(n5cc6c(F)cc(N7CCC(=O)NC7=O)cc6n5)CC4)CC3)cc2cc1NC(=O)c1cnn2cccnc12 [TM-174]	6.69 ± 1.07	58.10 ± 17.31	7.31 ± 1.87	59.29 ± 18.23	4.38 ± 1.24	43.81 ± 16.66	–	–
CN(C)c1cc2nn([C@H]3CC[C@H](CN4CC[C@@H](n5cc6cc(C7CCC(=O)NC7=O)c(F)cc6n5)[C@@H](F)C4)CC3)cc2cc1NC(=O)c1cnn2cccnc12 (some centres unmarked) [TM-135]	–	–	–	–	–	–	11.17 ± 2.36	9.60 ± 3.33
